In article PMC12263422, “Cryo-EM structure of the human THIK-1 K2P K^+ channel reveals a lower Y gate regulated by lipids and anesthetics” (Nature Structural & Molecular Biology, 2025):
Where “and” joins values, the source holds several entries; their conditions need not be identical. Identical values can stand only once.

How the values were obtained:
[1] = system: WT THIK-1 (coexpressed with hM1R); assay: Whole-cell currents in transiently transfected HEK-293 cells, GqPCR (hM1-R) mediated activation by Oxo-M, WT THIK-1; format: cell-based, human; settings: for activation by Oxo-M: 10 μM Oxo-M; for Maximal currents with Oxo-M: THIK-1 WT + M1R
Experimental: (§1) Two-electrode voltage–clamp (TEVC) studies were performed in Xenopus oocytes. All animal use conformed to the Guide for the Care and Use of Laboratory Animals (NIH Publication 85–23), and all experiments using Xenopus toads were approved by the local ethics panels. Oocytes were stored at 17 °C in ND96 recording solution composed of (in mM): 96 NaCl, 2 KCl, 1.8 CaCl2, 1 MgCl2, 5 HEPES (pH 7.5 adjusted with NaOH and HCl), supplemented with Na-pyruvate (275 mg L^–1), theophylline (90 mg L^–1) and gentamicin (50 mg L^–1). Oocytes were injected with 1 ng mRNA for WT or mutant channels, and were incubated for 24–48 h at 17 °C. Two-electrode voltage clamp recordings were then performed as previously described[42],[43]. For macroscopic patch–clamp measurements, oocytes were obtained as described above incubated at 17 °C in a solution containing (mM): 54 NaCl, 30 KCl, 2.4 NaHCO3, 0.82 MgSO4 ×7 H2O, 0.41 CaCl2, 0.33 Ca(NO3)2 ×4 H2O and 7.5 TRIS (pH 7.4 adjusted with NaOH and HCl) for 1–4 days before use. Excised patch recordings in inside-out configuration conditions were performed at room temperature. Patch pipettes were made from thick-walled borosilicate glass GB 200TF-8P (Science Products), had resistances of 0.2–0.5 MΩ (tip diameter, 10–25 µm) and filled with a pipette solution (in mM): 120 KCl, 10 HEPES and 3.6 CaCl2 (pH 7.4 adjusted with KOH and HCl). Intracellular bath solutions and compounds were applied to the cytoplasmic side of excised patches for the various K^+ channels through a gravity flow multi-barrel pipette system. The intracellular solution had the following composition (in mM): 120 KCl, 10 HEPES, 2 EGTA and 1 pyrophosphate (pH adjusted with KOH and HCl). Currents were recorded with an EPC10 amplifier (HEKA Electronics) and sampled at 10 kHz or higher, with filtering set to 3 kHz (–3 dB) or higher, as appropriate for sampling rate. For measurements of GPCR activation, whole-cell currents were recorded for THIK-1 in transiently transfected HEK-293 cells. Cells were stimulated by a ramp protocol between −100 and +60 mV (holding potential, −80 mV). The pipette solution was composed of (in mM): 140 KCl, 2 MgCl2, 1 CaCl2, 2.5 EGTA and 10 HEPES (pH 7.3 adjusted with KOH and HCl). The extracellular bath solution had the following composition (in mM): 135 NaCl, 5 KCl, 2 MgCl2, 2 CaCl2, 10 glucose and 10 HEPES pH (pH 7.3 adjusted with NaOH and HCl). Oxotremorine M (Oxo-M) was added to extracellular bath solution to obtain the final concentration. Single-channel currents were recorded with an Axopatch 200B amplifier through a Digidata 1440A digitizer (Molecular Devices). Data were filtered at 2 kHz and recorded at a 200-kHz sampling rate with the program Clampex (Molecular Devices). […]

[2] = system: THIK-1-Y273A (coexpressed with hM1R); assay: Whole-cell currents in transiently transfected HEK-293 cells, GqPCR (hM1-R) mediated activation by Oxo-M, THIK-1-Y273A; format: cell-based, human; settings: for Maximal currents with Oxo-M: THIK-1 Y273A + M1R
Experimental: as §1, with “The intracellular solution had the following composition (in mM): 120 KCl, 10 HEPES, 2 EGTA and 1 pyrophosphate (pH adjusted with KOH and HCl).” left out, “Cells were stimulated by a ramp protocol between −100 and +60 mV (holding potential, −80 mV). The pipette solution was composed of (in mM): 140 KCl, 2 MgCl2, 1 CaCl2, 2.5 EGTA and 10 HEPES (pH 7.3 adjusted with KOH and HCl). The extracellular bath solution had the following composition (in mM): 135 NaCl, 5 KCl, 2 MgCl2, 2 CaCl2, 10 glucose and 10 HEPES pH (pH 7.3 adjusted with NaOH and HCl). Oxotremorine M (Oxo-M) was added to extracellular bath solution to obtain the final concentration.” left out

[3] = molecular target: T1, WT THIK-1 (without M1R) (Homo sapiens, UniProt Q9HB14); assay: Whole-cell currents in HEK-293 cells with Oxo-M, WT THIK-1 without M1R; format: cell-based; settings: THIK-1 WT (no M1R)
T1 construct: expressed in transfected cells; host or cells: HEK-293
T1 sequence (Q9HB14 whole entry): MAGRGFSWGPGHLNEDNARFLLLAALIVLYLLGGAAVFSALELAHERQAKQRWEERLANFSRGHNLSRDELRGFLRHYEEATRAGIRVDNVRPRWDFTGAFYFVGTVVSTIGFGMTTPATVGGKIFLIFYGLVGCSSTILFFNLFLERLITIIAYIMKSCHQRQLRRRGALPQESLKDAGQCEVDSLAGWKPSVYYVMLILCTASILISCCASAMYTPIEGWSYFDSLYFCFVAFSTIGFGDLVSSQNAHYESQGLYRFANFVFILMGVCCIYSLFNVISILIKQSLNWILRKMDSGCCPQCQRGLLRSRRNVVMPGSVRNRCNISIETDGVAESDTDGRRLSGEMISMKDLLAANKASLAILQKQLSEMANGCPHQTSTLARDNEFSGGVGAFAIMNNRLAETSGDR
Source text: Supplement 41594_2025_1497_MOESM2_ESM.xlsx, sheet "ExtData_Fig_S2e" | column: Maximal currents with Oxo-M (%); WT

In the case of `C[N+](C)(C)CC#CCN1CCCC1=O` [Oxo-M, Oxotremorine M], the “activation by Oxo-M” value ([1]; WT THIK-1 with hM1-R) is reported as ~ 50%, the “activation by Oxo-M” value ([1]; in the absence of hM1-R) is reported as “no activation” and the “Maximal currents with Oxo-M” value ([1]; individual recordings) is reported as 172.080% and 208.230% and 131.370% and 127.470% and 125.270% and 149.760% and 113.980% and 121.900% and 146.330% and 151.430% and 123.170% and 131.250% and 181.580% and 173.780% and 155.620% and 228.290% and 290.820% and 139.180% and 66.330% and 107.180% and 88.700%. For the same compound, the “Maximal currents with Oxo-M” value ([1]; mean) was 149.22%, the “activation by Oxo-M” value ([2]; 10 μM Oxo-M, THIK-1-Y273A) was “no activation” and the “Maximal currents with Oxo-M” value ([2]; individual recordings) was 93.100% and 97.920% and 94.800% and 93.870% and 99.320% and 100.290%. The “Maximal currents with Oxo-M” value ([2]; mean) was 96.55%, the “Maximal currents with Oxo-M” value ([3]; individual recordings) was 87.670% and 72.140% and 84.570% and 69.740% and 73.820% and 88.800% and 69.120% and 93.710% and 101.590% and 90.590% and 96.720% and 154.730% and 88.450% and the “Maximal currents with Oxo-M” value ([3]; mean) was 90.13%.
